Results: US12497610B2, “Functional genomics using CRISPR-CAS systems for saturating mutagenesis of non-coding elements, compositions, methods, libraries and applications thereof” (THE BROAD INSTITUTE, INC., priority 2015, dated 2025)

Tested on: human BCL11A erythroid enhancer
Assay: Tiled pooled CRISPR-Cas9 screen for in situ functional mapping of the human BCL11A erythroid enhancer (HbF-high/HbF-low sort, sgRNA deep sequencing)
Format: cell-based
Conditions: for Enrichment Score: HbF enrichment, human library NGG and NGG RC sgRNAs filtered for enrichment score >0.259; for Dropout Score: human library sgRNAs that produced HbF enrichment over 0.259
Source text: Every 20-mer sequence upstream of an NGG or NAG PAM sequence on the sense or anti-sense strand was identified for both the human and mouse orthologous +55, +58, and +62 DNase hypersensitive site (DHS) as well as BCL11A/BCL11a exon 2. Relative to the human hg 19 reference genome, a reference was used with the following substitutions to approximate a common low-HbF associated haplotype: rs1427407-G, rs1896293-T, rs6706648-T, rs6738440-G, rs7606173-C. Each of the sgRNA oligos were synthesized as previously described (37,41,64) and cloned using a Gibson Assembly master mix (New England Biolabs) into lentiGuide-Puro (Addgene plasmid ID 52963) BsmBI digested, PCR purified, and dephosphorylated. Gibson Assembly products were transformed to electrocompetent E. cloni cells (Lucigen). Sufficient colonies were isolated to ensure 90X library coverage for both human and mouse libraries. Plasmid libraries were deep sequenced (described below) to confirm representation.
Tiled Pooled CRISPR-Cas9 Screen for In Situ Functional Mapping the Human BCL11A Erythroid Enhancer.
HUDEP clone 2 (HUDEP-2) was utilized as previously described by from Nakamura and colleagues (49). HUDEP-2 cells were expanded in StemSpan SFEM (Stem Cell Technologies) supplemented with 10^−6 M dexamethasone (Sigma), 100 ng/mL human stem cell factor (SCF) (R&D), 3 IU/mL erythropoietin (Amgen), 1% L-glutamine (Life Technologies), and 2% penicillin/streptomycin (Life Technologies). 1 μg/mL doxycycline (Sigma) was included in the culture to induce expression of the human papilloma virus type 16 E6/E7 genes (49). HUDEP-2 cells were differentiated in Iscove's Modified Dulbecco's Medium (IMDM) supplemented with 330 μg/mL halo-transferrin (Sigma), 10 μg/mL recombinant human insulin (Sigma), 2 IU/mL heparin (Sigma), 5% human solvent detergent pooled plasma AB (Rhode Island Blood Center), 3 IU/mL erythropoietin (Amgen), 100 ng/mL human stem cell factor (SCF) (R&D), 1 μg/mL doxycycline (Sigma), 1% L-glutamine (Life Technologies), and 2% penicillin/streptomycin (Life Technologies).
HUDEP-2 cells with stable Cas9 expression were transduced at low multiplicity with the human sgRNA library lentivirus pool while in expansion medium. […] Cell numbers were maintained throughout the experiment at levels adequate to exceed 1000× representation of the library. 10 μg/mL blasticidin (Sigma) and 1 μg/mL puromycin (Sigma) were added 24 hours after transduction to select for lentiviral library integrants in cells with Cas9. Cells were cultured in expansion media for one week followed by differentiation media for an additional week.
Intracellular staining was performed by fixing cells with 0.05% glutaraldehyde (grade II) (Sigma) for 10 minutes at room temperature. Cells were centrifuged for 5 minutes at 350 g and then resuspended in 0.1% Triton-X100 (Life Technologies) for 5 minutes at room temperature for permeabilization. Triton X-100 was diluted with phosphate buffered saline (PBS) and then centrifuged at 350 g for 15 minutes. Cells were stained with anti-human antibodies for HbF (clone HbF-1 with FITC or APC conjugation; Life Technologies) and B-hemoglobin antibody (clone 37-8 with PerCP-Cy5 or PE conjugation; Santa Cruz) for 20 minutes in the dark. Cells were washed to remove unbound antibody prior to FACS analysis. 0.2 μg HbF and 2 μg of HbA CB-hemoglobin) antibodies were used per 5 million cells. Control cells exposed to a nontargeting sgRNA sample and BCL11A exon 2 were used as negative and positive controls respectively to establish flow cytometry conditions. Populations of cells with the top and bottom 10% of expression of HbF were sorted by FACS.
After sorting the HbF-high and HbF-low pools, library preparation and deep sequencing was performed as previously described (37). Briefly, genomic DNA was extracted using the Qiagen Blood and Tissue kit. […]

| Substance | Enrichment Score | Dropout Score |
| --- | --- | --- |
| BCL_01799_H_D62 (guide CTCAGGTGATCCTCCTGCCCNGGRC; listed as DNA, chemistry not given here) | 0.9108 | −9.478 |
| BCL_01641_H_D55 (guide CGGTGGCCGTTTGCCCAGGGNGGRC; listed as DNA, chemistry not given here) | 0.282 | −0.4633 |
| BCL_00255_H_exon2 (guide ATCATGACCTCCTCACCTGTNGG; listed as DNA, chemistry not given here) | 1.703 | −2.497 |
| BCL_00228_H_D62 (guide TCCCAGCACTTTGGGAGGCCNGG; listed as DNA, chemistry not given here) | 0.761 | −5.658 |
| BCL_00087_H_D55 (guide CATTGCATCATCCTGGTACCNGG; listed as DNA, chemistry not given here) | 0.438 | −0.2253 |
| BCL_01991_H_exon2 (guide CGTCATCCTCTGGCGTGACCNGGRC; listed as DNA, chemistry not given here) | 0.8523 | −0.7166 |
| BCL_00184_H_D58 (guide CCTGGGCAAACGGCCACCGANGG; listed as DNA, chemistry not given here) | 0.3155 | −0.5414 |
| BCL_02004_H_exon2 (guide CCCCCAATGGGAAGTTCATCNGGRC; listed as DNA, chemistry not given here) | 0.4685 | −0.1189 |
| BCL_01619_H_D58 (guide TTTTATCACAGGCTCCAGGANGGRC; listed as DNA, chemistry not given here) | 1.662 | −0.3147 |
| BCL_00267_H_exon2 (guide TGGCATCCAGGTCACGCCAGNGG; listed as DNA, chemistry not given here) | 2.049 | −2.006 |
| BCL_02011_H_exon2 (guide CTGGAGCTCCCAACGGGCCGNGGRC; listed as DNA, chemistry not given here) | 0.6044 | 0.7912 |
| BCL_00265_H_exon2 (guide GCATCCAATCCCGTGGAGGTNGG; listed as DNA, chemistry not given here) | 1.291 | −0.8895 |
| BCL_00257_H_exon2 (guide TGCCAGATGAACTTCCCATTNGG; listed as DNA, chemistry not given here) | 1.945 | −1.9609 |
| BCL_01833_H_D62 (guide AGTTCAAGTAGATATCAGAANGGRC; listed as DNA, chemistry not given here) | 0.6116 | 0.2289 |
| BCL_00187_H_D58 (guide ATCAGAGGCCAAACCCTTCCNGG; listed as DNA, chemistry not given here) | 2.122 | −0.7444 |
| BCL_01443_H_D55 (guide GGCACACCCTGTGATCTTGTNGGRC; listed as DNA, chemistry not given here) | 0.4181 | 0.2579 |
| BCL_00225_H_D62 (guide ACCTGTAATCCCAGCACTTTNGG; listed as DNA, chemistry not given here) | 0.3328 | −8.821 |
| BCL_01624_H_D58 (guide GGTTTGGCCTCTGATTAGGGNGGRC; listed as DNA, chemistry not given here) | 1.472 | −0.7713 |
